Measured values taken from US20230321008A1, “INHIBITORS OF ACID SPHINGOMYELINASE FOR PREVENTING AND TREATING THE COVID-19 DISEASE” (priority 2020, published 2023).
“Also recorded” adds a separate entry of the source.

Columns and labels:
[1] = biological target: T1, acid sphingomyelinase (ASM) (Homo sapiens, UniProt P17405); conditions: cited from earlier work
T1 sequence (P17405 47-631): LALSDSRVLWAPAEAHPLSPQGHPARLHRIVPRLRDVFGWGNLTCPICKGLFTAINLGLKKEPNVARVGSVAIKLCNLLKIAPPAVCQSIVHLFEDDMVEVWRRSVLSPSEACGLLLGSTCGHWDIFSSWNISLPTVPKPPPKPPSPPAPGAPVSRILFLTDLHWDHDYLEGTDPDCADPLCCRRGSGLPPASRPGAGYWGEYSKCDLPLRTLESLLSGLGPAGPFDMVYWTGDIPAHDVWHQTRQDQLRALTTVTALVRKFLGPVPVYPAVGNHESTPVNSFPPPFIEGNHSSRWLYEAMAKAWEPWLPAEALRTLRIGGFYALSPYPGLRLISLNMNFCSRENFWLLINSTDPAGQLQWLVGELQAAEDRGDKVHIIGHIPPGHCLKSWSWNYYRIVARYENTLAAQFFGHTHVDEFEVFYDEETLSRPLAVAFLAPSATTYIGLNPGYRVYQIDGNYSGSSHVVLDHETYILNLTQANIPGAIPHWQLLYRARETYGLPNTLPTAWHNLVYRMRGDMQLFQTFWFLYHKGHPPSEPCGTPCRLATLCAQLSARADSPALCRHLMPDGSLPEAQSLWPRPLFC

[2] = test system: ceramide-enriched membrane domains; conditions: in vitro; cited from earlier work
[3] = test system: SARS-CoV-2; conditions: cited from earlier work
[4] = test system: SARS-CoV-2; conditions: oral use in healthy volunteers; cited from earlier work
[5] = test system: severe COVID-19; test: Example 1: multicenter observational retrospective cohort study, FIASMA psychotropic medication use at baseline and intubation or death in patients with mental disorder; format: in vivo, human; conditions: patients with mental disorder hospitalized for severe COVID-19; vs not exposed
Description: We conducted a multicenter observational retrospective cohort study at 36 AP-HP hospitals from the beginning of the epidemic in France, i.e. January 24th, until May 1st. We included all adults aged 18 years or over with a mental disorder who have been hospitalized in these medical centers for severe COVID-19. Mental disorder was defined as having at least one current International Statistical Classification of Diseases and Related Health Problems (ICD-10) diagnosis of mental disorder (F01-F99) during the visit or an ongoing prescription of any antidepressant, antipsychotic, or mood stabilizer (i.e. lithium or antiepileptic medications with mood stabilizing effects) for a psychiatric disorder at hospital admission. COVID-19 was ascertained by a positive reverse-transcriptase-polymerase-chain-reaction (RT-PCR) test from analysis of nasopharyngeal or oropharyngeal swab specimens. […]
We calculated frequencies of baseline characteristics described above in patients receiving or not receiving a FIASMA psychotropic medication and compared them using standardized mean differences (SMD). […]

[6] = test system: severe COVID-19; test: Example 2: multicenter observational retrospective cohort study, FIASMA medication use at baseline and intubation or death in patients hospitalized for severe COVID-19; format: in vivo, human; conditions: vs no FIASMA medication
Description: We included all adults aged 18 years or over who have been hospitalized in these medical centers for severe COVID-19. COVID-19 was ascertained by a positive reverse-transcriptase-polymerase-chain-reaction (RT-PCR) test from analysis of nasopharyngeal or oropharyngeal swab specimens. Severe COVID-19 at admission was defined as having at least one of the following criteria: respiratory rate > 24 breaths/min or < 12 breaths/min, resting peripheral capillary oxygen saturation in ambient air < 90%, temperature > 40° C., systolic blood pressure < 100 mm Hg or high lactate levels. AP-HP clinical Data Warehouse initiatives ensure patient information and informed consent regarding the different approved studies through a transparency portal in accordance with European Regulation on data protection and authorization n°1980120 from National Commission for Information Technology and Civil Liberties (CNIL).
We used data from the AP-HP Health Data Warehouse (‘Entrepôt de Données de Santé (EDS)’). This warehouse contains all available clinical data on all inpatient visits for COVID-19 to any Greater Paris University hospital. The data included patient demographic characteristics, vital signs, laboratory test and RT-PCR test results, medication administration data, medication lists during current and past hospitalizations in AP-HP hospitals, current diagnoses, discharge disposition, and death certificates.
We obtained the following data for each patient at the time of the hospitalization: sex; age, which was categorized into 4 classes based on the OpenSAFELY study results (i.e. 18-50, 51-70, 71-80, 81+); hospital, which was categorized into 4 classes following the administrative clustering of AP-HP hospitals in Paris and its suburbs based on their geographical location (i.e., AP-HP Centre - Paris University, Henri Mondor University Hospitals and at home hospitalization; AP-HP Nord and Hôpitaux Universitaires Paris Seine-Saint-Denis; AP-HP Paris Saclay University; and AP-HP Sorbonne University); obesity, which was defined as having a body mass index higher than 30 kg/m^2 or an International Statistical Classification of Diseases and Related Health Problems (ICD-10) diagnosis code for obesity (E66.0, E66.1, E66.2, E66.8, E66.9); self-reported current smoking status; and any medication prescribed according to compassionate use or as part of a clinical trial (e.g. hydroxychloroquine, azithromycin, remdesivir, tocilizumab, sarilumab, or dexamethasone). To take into account possible confounding by indication bias for FIASMA medication, we recorded whether patients had any current diagnosis, based on ICD-10 diagnosis codes, for neoplasms and diseases of the blood (C00-D89); mental disorders (F01-F99); diseases of the nervous system (G00-G99); cardiovascular disorders (I00-I99); respiratory disorders (J00-J99); digestive disorders (K00-K95); dermatological disorders (L00-L99); diseases of the musculoskeletal system (M00-M99); diseases of the genitourinary system (N00-N99); endocrine disorders (E00-E89); and eye-ear-nose-throat disorders (H00-H95).
All medical notes and prescriptions are computerized in Greater Paris University hospitals. Medications including their dosage, frequency, date, and mode of administration were identified from medication administration data or scanned handwritten medical prescriptions, through two deep learning models based on BERT contextual embeddings, one for the medications and another for their mode of administration. The model was trained on the APmed corpus, a previously annotated dataset for this task. Extracted medications names were then normalized to the Anatomical Therapeutic Chemical (ATC) terminology using approximate string matching.
FIASMA medication use was defined as receiving at least one FIASMA medication at study baseline, i.e. within the first 24 hours of hospital admission, and before the end of the index hospitalization, intubation or death.

[7] = test system: SARS-CoV-2; conditions: in vitro; cited from earlier work
[8] = test system: SARS-CoV-2; conditions: cited from earlier work; remark: listed apart in the source
[9] = biological target: dopamine D2 receptor (Homo sapiens, UniProt P14416); conditions: cited from earlier work
[10] = test system: COVID-19; test: Example 3: multicenter observational retrospective study, hydroxyzine use and death in patients admitted to hospital with COVID-19; format: in vivo, human
[11] = biological target: serotonin 5-HT2A-receptor (Homo sapiens, UniProt P28223); conditions: cited from earlier work
[12] = test system: α1-adrenergic receptor; conditions: cited from earlier work
[13] = test system: COVID-19; conditions: randomized double-blind controlled study; cited from earlier work

Chain of dopamine D2 receptor (P14416 whole entry, species assumed): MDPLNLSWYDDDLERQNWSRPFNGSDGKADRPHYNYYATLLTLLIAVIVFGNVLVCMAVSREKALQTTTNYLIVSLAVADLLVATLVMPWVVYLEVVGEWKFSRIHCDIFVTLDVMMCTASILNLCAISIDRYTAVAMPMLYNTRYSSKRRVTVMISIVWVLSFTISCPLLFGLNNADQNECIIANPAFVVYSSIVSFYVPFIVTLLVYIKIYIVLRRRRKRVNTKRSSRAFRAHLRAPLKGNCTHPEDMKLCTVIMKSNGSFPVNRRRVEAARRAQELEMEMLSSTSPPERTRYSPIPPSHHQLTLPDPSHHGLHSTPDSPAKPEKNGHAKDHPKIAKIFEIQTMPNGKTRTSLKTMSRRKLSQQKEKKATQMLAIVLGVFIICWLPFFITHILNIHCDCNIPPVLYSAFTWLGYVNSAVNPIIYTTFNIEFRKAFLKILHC
Chain of serotonin 5-HT2A-receptor (P28223 whole entry): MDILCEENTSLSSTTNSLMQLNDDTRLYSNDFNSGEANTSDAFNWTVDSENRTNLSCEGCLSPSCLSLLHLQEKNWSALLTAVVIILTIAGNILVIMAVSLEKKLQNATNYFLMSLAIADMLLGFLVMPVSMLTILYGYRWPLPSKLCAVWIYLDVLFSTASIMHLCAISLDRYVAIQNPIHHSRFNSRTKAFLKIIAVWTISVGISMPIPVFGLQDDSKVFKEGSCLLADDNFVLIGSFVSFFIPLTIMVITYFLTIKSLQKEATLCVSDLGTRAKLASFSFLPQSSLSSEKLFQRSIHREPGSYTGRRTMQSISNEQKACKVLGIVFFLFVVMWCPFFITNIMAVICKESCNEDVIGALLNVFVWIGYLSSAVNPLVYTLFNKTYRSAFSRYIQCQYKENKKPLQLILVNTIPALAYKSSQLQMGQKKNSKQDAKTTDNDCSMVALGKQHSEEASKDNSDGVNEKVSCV

SMILES | In vitro inhibition of acid sphingomyelinase (in words) [1] | Formation of ceramide-enriched membrane domains (in words) [2] | Infection of Vero cells with SARS-CoV-2 (in words) [3] | Association of use at baseline with risk of intubation or death (in words) [5] | Association of use at baseline with risk of intubation or death (in words) [6] | Inhibition of viral replication (in words) [7] | also measured
CN(C)CCC=C1c2ccccc2CCc2ccccc21 [Amitriptyline, amitriptyline] | inhibited ASM; also recorded: in vitro inhibit acid sphingomyelinase with varying degrees | inhibited ASM and the formation of ceramide-enriched membrane domains | prevented Vero cells from being infected with SARS-CoV-2 | – | – | – | Infection of freshly isolated nasal epithelial cells with SARS-CoV-2 (in words) [4]: efficiently blocked infection of freshly isolated nasal epithelial cells with SARS-CoV-2
CN(C)CCC[C@@]1(c2ccc(F)cc2)OCc2cc(C#N)ccc21 [Escitalopram, escitalopram] | inhibited ASM; also recorded: in vitro inhibit acid sphingomyelinase with varying degrees | inhibited ASM and the formation of ceramide-enriched membrane domains | prevented Vero cells from being infected with SARS-CoV-2 | reached statistical significance across all main and sensitivity analyses | reached statistical significance across all main and sensitivity analyses | inhibition of viral replication was not observed | –
CNCCC(Oc1ccc(C(F)(F)F)cc1)c1ccccc1 (stereo not drawn) [Fluoxetine, fluoxetine] | inhibited ASM; also recorded: in vitro inhibit acid sphingomyelinase with varying degrees | inhibited ASM and the formation of ceramide-enriched membrane domains | prevented Vero cells from being infected with SARS-CoV-2 | – | – | inhibition of viral replication | Infection of cultured epithelial cells with SARS-CoV-2 (in words) [8]: inhibition of the infection of cultured epithelial cells with SARS-CoV-2
OCCOCCN1CCN(C(c2ccccc2)c2ccc(Cl)cc2)CC1 (stereo not drawn) [Hydroxyzine, 2-[2-[4-[(4-chlorophenyl)-phenylmethyl]piperazin-1-yl]ethoxy]ethanol] | – | – | – | reached statistical significance across all main and sensitivity analyses | reached statistical significance across all main and sensitivity analyses | – | Antagonist action at the dopamine D2 receptor (in words) [9]: weakly acts as an antagonist; Association of cumulative dose with risk of death (in words) ([10]; higher rather than lower cumulative doses): significantly associated with lower risk of death; also recorded: significantly stronger at higher rather than lower cumulative doses; Association of use with risk of death (in words) ([10]; hospitalized adult patients with COVID-19): significantly and substantially associated with reduced risk of death; also recorded: significantly associated with reduced mortality in patients hospitalized for COVID-19; also recorded: significantly and substantially associated with lower risk of death; Antagonist action at the serotonin 5-HT2A-receptor (in words) [11]: weakly acts as an antagonist; Antagonist action at the α1-adrenergic receptor (in words) [12]: weakly acts as an antagonist
COCCCC/C(=N\OCCN)c1ccc(C(F)(F)F)cc1 [fluvoxamine] | in vitro inhibit acid sphingomyelinase with varying degrees | – | – | – | – | – | Effect on COVID-19 disease progression (in words) [13]: significant protective effects on COVID-19 disease progression
